The text below walks through data of US20040072206A1, “Method for identifying modulators of transcription” (priority 2000, published 2004).

One test concerns the target T1, B. subtilis RNAP (Bacillus subtilis, UniProt P37870+P37871).
T1 construct: endogenous in cells; host or cells: Bacillus subtilis strain PL37 (built from strain 168)
Description: Dual reporter assay in strain PL37: test reporter Pxyl-lacZ and ratio of control to test reporter (RES:MUG). The note with it: for Ratio of the control reporter (RES): test reporter (MUG): strain PL37, DMSO control […]. The test is classed as cell-based. How it is done:
(§1) 20 known antibiotics were tested at a range of concentrations to determine their effect on test and control reporters within the assay. […] Cultures of PL37 grown in PAB, were diluted to 0.05 A600 and then grown for 2 hours at 37° C. in PAB supplemented with 0.02 mM IPTG. Cells were pelleted and frozen. They were later resuspended and diluted in PAB supplemented with 0.02 mM IPTG and grown at 37° C. to early exponential phase. Cultures were then diluted to 0.05 A600 in PAB and added in 20 μl volumes to wells of microtitre plates containing 20 μl volumes of the antibiotics. Plates were incubated at 37° C. for two hours, and assay mix was added to detect reporter enzyme activity (see below).
(§2) Following the addition of 160 μl of assay mix (1.3×Z buffer containing 94 μg/ml lysozyme, 8.4 μg/ml 4-methylumbelliferyl-β-D-galactoside, 0.53 μg/ml resorufin-β-D-glucuronide and 0.05% Triton) to each well, the microtitre plate was incubated in the dark for 30 mini or 1 hour at room temperature. Fluorescence was read on a BMG FLUOstar Galaxy at excitation/emission 355/460 nm and 544/590 nm, respectively, with gains set at 5 and 25, respectively.

The target of the next test is T2, T7 RNAP (Escherichia phage T7, UniProt P00573).
T2 construct: expressed in transfected cells; host or cells: Bacillus subtilis PL37, with Pspac-rpoT7 integrated in the chromosome and induced by IPTG
Description: Dual reporter assay in strain PL37: control reporter PT7X-gus. Type of test: cell-based, bacteriophage T7. The note with it: strain PL37, FIG. 5. How it is done:
as §1, §2
On the technique in general: In a reporter assay the amount or activity of a reporter protein is the signal.

A further test concerns the target T3, bacterial RNA polymerase (Bacillus subtilis, UniProt P37870+P37871).
T3 construct: endogenous in cells; host or cells: Bacillus subtilis strain X (derivative of strain 168)
Description: Dual reporter assay in strain X (xylose-induced lacZ and T7 RNAP-driven gus reporters). The test is classed as cell-based. The note with it: 30 min incubation. The source says: The strain X is a derivative of the standard laboratory strain of Bacillus subtilis 168. It has been modified in three ways.
1. It carries a xylose-inducible promoter driving transcription of the well known reporter gene lacZ, encoding the enzyme β-galactosidase. The reporter gene is silent or expressed at low levels in the absence of xylose because the endogenous XylR protein binds to the promoter region, reducing the ability of RNAP to initiate transcription. On addition of xylose or similar sugar, the repressor leaves the promoter allowing RNAP to transcribe the gene strongly, resulting in increased synthesis of β-galactosidase. A simple colourigenic substrate, ONPG was used to detect the formation of the enzyme.
2. Strain X also carries a second reporter gene comprising a promoter recognised by the RNAP of bacteriophage T7. This promoter has been modified so as to be recognised and repressed by the same XylR repressor as controls the first reporter. Consequently, the promoter cannot be utilised by T7 RNAP unless xylose is present. […]
The assay was done by growing a culture of strain X in the absence of xylose and then dispensing aliquots of culture into the wells of a microtitre plate. […] The plate was incubated for 30 min to allow accumulation of the two reporter enzymes, then the cells were lysed and the two enzyme activities were measured.

The mark [1] stands for this setting: Dilution Number 1 (highest concentration tested: 128, 16 or 0.5 μg/ml depending on antibiotic).
The mark [2] stands for this setting: Dilution Number 11 (lowest concentration tested: 0.125, 0.016 or 0.0005 μg/ml depending on antibiotic).

T1 sequence (P37871 whole entry): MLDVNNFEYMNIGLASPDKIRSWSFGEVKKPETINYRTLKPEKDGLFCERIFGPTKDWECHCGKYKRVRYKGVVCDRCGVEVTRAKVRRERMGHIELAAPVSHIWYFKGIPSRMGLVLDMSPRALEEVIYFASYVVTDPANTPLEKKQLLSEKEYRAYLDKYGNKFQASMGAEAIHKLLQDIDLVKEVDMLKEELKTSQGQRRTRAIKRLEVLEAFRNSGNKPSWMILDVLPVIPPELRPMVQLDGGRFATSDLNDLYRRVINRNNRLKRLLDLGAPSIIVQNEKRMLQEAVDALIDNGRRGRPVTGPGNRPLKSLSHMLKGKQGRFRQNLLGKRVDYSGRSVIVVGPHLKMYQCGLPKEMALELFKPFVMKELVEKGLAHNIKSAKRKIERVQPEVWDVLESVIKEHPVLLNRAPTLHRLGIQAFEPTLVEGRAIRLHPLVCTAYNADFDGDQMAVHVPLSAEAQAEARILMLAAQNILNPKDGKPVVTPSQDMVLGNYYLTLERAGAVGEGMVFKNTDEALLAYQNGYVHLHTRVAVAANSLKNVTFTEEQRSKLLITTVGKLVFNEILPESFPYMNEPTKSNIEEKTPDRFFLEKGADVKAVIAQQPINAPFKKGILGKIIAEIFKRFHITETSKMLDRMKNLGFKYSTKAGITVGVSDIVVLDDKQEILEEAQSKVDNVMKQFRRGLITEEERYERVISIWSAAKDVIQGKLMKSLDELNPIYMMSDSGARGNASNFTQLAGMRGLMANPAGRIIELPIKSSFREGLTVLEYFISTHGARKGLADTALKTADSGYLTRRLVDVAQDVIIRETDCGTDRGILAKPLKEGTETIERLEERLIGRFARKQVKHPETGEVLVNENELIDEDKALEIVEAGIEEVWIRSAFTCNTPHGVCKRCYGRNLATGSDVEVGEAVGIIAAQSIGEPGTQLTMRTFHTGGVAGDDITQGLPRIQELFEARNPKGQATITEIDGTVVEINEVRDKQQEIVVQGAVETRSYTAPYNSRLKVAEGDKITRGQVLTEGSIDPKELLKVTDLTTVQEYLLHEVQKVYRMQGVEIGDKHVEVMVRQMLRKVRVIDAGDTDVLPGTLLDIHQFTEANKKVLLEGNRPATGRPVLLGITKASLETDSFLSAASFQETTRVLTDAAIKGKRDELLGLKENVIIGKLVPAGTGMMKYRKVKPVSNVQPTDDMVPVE
T1 sequence (P20429 whole entry, further chain): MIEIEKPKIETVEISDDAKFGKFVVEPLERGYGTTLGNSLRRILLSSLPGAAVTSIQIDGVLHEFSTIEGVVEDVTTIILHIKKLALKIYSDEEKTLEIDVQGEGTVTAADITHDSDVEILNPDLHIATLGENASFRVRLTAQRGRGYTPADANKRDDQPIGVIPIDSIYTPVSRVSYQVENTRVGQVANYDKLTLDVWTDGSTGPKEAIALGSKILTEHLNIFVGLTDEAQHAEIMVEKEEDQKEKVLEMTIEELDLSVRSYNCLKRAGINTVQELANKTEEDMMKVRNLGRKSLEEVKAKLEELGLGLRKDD
T1 sequence (O35011 whole entry, further chain): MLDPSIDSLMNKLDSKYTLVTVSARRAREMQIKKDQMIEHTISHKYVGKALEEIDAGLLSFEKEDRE
T1 sequence (P37870 whole entry): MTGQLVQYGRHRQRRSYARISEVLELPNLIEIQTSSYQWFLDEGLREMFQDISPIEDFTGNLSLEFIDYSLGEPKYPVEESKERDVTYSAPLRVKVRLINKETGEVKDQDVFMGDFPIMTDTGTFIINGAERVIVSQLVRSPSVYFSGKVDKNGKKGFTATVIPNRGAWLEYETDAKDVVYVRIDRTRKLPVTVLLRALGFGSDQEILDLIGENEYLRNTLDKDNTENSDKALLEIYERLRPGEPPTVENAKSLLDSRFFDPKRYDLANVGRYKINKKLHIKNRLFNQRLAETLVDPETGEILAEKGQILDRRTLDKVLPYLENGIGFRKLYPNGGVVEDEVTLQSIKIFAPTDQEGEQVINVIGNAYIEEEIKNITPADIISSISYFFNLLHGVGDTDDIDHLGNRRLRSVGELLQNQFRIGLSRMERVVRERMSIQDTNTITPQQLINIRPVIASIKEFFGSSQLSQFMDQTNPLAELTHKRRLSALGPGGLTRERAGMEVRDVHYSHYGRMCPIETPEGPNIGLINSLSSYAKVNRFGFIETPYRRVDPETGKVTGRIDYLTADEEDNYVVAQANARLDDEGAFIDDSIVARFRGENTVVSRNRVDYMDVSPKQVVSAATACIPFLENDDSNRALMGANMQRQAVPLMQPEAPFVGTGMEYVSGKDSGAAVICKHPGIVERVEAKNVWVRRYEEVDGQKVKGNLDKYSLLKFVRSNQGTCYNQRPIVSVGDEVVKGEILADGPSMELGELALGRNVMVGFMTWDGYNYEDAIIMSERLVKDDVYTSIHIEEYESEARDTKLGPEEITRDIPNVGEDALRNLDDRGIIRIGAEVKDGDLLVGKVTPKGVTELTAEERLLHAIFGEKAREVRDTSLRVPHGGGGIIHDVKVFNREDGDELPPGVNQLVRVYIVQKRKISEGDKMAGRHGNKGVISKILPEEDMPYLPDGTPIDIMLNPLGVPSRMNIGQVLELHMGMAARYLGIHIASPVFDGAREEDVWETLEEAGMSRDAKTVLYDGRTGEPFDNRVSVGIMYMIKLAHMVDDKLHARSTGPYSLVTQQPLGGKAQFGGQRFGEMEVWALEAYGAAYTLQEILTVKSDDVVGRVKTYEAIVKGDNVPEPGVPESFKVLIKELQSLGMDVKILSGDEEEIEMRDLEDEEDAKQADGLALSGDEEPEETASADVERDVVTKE
T3 sequence (O35011 whole entry): as the sequence (O35011 whole entry, further chain) above
T3 sequence (P20429 whole entry, further chain): as the sequence (P20429 whole entry, further chain) above
T3 sequence (P37870 whole entry): as the sequence (P37870 whole entry) above
T3 sequence (P37871 whole entry): as the sequence (P37871 whole entry) above
T2 sequence (P00573 whole entry): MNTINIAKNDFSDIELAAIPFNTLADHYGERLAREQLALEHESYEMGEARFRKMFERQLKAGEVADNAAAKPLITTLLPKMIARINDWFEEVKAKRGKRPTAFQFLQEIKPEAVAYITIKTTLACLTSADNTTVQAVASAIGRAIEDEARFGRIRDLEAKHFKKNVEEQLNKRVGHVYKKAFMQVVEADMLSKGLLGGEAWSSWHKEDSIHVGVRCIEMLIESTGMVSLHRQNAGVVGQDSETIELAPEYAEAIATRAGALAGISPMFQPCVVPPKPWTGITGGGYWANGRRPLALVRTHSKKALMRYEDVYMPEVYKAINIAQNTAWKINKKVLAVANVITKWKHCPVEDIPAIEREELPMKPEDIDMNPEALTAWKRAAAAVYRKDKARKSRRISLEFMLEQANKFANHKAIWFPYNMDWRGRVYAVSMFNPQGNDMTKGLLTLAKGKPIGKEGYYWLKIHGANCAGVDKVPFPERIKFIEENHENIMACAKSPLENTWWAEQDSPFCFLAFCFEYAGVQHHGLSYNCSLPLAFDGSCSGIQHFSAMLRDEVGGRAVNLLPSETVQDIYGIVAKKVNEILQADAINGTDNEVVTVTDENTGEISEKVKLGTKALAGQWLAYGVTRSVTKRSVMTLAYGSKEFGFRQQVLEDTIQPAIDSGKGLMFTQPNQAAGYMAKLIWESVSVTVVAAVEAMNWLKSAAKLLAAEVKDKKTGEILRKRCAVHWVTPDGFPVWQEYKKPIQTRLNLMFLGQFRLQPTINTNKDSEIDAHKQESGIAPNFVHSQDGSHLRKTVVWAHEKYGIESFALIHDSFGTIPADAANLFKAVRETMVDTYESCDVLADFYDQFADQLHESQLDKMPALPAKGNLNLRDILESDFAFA

With `CNC(=O)[C@@H](C)[C@H]1C(=O)/C(=C(O)/C=C/C(C)=C/[C@@H](C)[C@H]2O[C@@]3(C)O[C@H](C=C[C@@]34CO4)[C@@H]2C)C(=O)N1[C@@H]1CC[C@H](O)[C@H](C)O1` [Streptolydigin], at B. subtilis RNAP (strain PL37, FIG. 6), the “Expression of the test reporter, xyl-lacZ” value is given as “reduced drastically”. Further, the “RES:MUG ratio compared with the no antibiotic control (DMSO)” value at B. subtilis RNAP (strain PL37, Table 2, FIG. 7) is recorded as “greater than that of the no antibiotic control (DMSO) at several concentrations”. Moreover, the “Detection as specific inhibitor of RNA polymerase” value at B. subtilis RNAP (strain PL37, antibiotic panel) was “detected as specific inhibitors of RNA polymerase”. For the same molecule, the “Ratio of the control reporter (RES): test reporter (MUG)” value (“Ratio of the control reporter (RES)” below) at B. subtilis RNAP (setting [1]) was 16.44; at B. subtilis RNAP (Dilution Number 2), 16.68; on B. subtilis RNAP (Dilution Number 3) it was 14.07; on B. subtilis RNAP (Dilution Number 4), 10.22; on B. subtilis RNAP (Dilution Number 5) it was 4.88; on B. subtilis RNAP (Dilution Number 6), 2.53. For the same molecule, the “Ratio of the control reporter (RES)” value at B. subtilis RNAP (Dilution Number 7) is listed as 1.74; at B. subtilis RNAP (Dilution Number 8), 1.41; at B. subtilis RNAP (Dilution Number 9) it was 1.27; at B. subtilis RNAP (Dilution Number 10), 1.23; on B. subtilis RNAP (setting [2]), 1.16. In addition, the “Expression of the T7 RNAP-dependent control reporter” value on T7 RNAP is recorded as “increased”. Besides, at bacterial RNA polymerase, the “Reporter enzyme activities (β-galactosidase and β-glucuronidase)” value was “only the reporter enzyme driven by the T7 RNAP (β-glucuronidase) was active”.

Take `CO[C@@H]1[C@@H](OC(N)=O)[C@@H](O)[C@H](Oc2ccc3c(O)c(NC(=O)c4ccc(O)c(CC=C(C)C)c4)c(=O)oc3c2C)OC1(C)C` [Novobiocin]: the “Ratio of the control reporter (RES)” value was determined as 1.33 on B. subtilis RNAP (setting [1]); 1.70 on B. subtilis RNAP (Dilution Number 2); 1.66 on B. subtilis RNAP (Dilution Number 3); 1.49 on B. subtilis RNAP (Dilution Number 4); 1.24 on B. subtilis RNAP (Dilution Number 5); 0.81 on B. subtilis RNAP (Dilution Number 6). The “Ratio of the control reporter (RES)” value on B. subtilis RNAP (Dilution Number 7) is on record as 0.85; at B. subtilis RNAP (Dilution Number 8) it was 1.05; on B. subtilis RNAP (Dilution Number 9), 1.14; on B. subtilis RNAP (Dilution Number 10), 1.18; on B. subtilis RNAP (setting [2]), 1.19.

As to `CC[C@@]1([C@@H]2O[C@@H]([C@H]3O[C@@](O)(CO)[C@H](C)C[C@@H]3C)C[C@@H]2C)CC[C@H]([C@]2(C)CC[C@]3(C[C@H](O)[C@@H](C)[C@@H]([C@@H](C)[C@@H](OC)[C@H](C)C(=O)O)O3)O2)O1` [Monensin], the “Ratio of the control reporter (RES)” value is recorded as 1.74 on B. subtilis RNAP (setting [1]); 1.42 at B. subtilis RNAP (Dilution Number 2); 1.45 at B. subtilis RNAP (Dilution Number 3); 1.79 at B. subtilis RNAP (Dilution Number 4); 2.06 on B. subtilis RNAP (Dilution Number 5); 2.00 on B. subtilis RNAP (Dilution Number 6). Besides, the “Ratio of the control reporter (RES)” value at B. subtilis RNAP (Dilution Number 7) was 1.88; at B. subtilis RNAP (Dilution Number 8), 1.74; on B. subtilis RNAP (Dilution Number 9), 1.54; at B. subtilis RNAP (Dilution Number 10) it was 1.37; at B. subtilis RNAP (setting [2]), 1.33.

As to `CC1(C)S[C@@H]2[C@H](NC(=O)Cc3ccccc3)C(=O)N2[C@H]1C(=O)O` [Penicillin G], the “Ratio of the control reporter (RES)” value on B. subtilis RNAP (setting [1]) came to 1.77; on B. subtilis RNAP (Dilution Number 2), 1.72; at B. subtilis RNAP (Dilution Number 3), 1.70; at B. subtilis RNAP (Dilution Number 4) it was 1.76; at B. subtilis RNAP (Dilution Number 5), 1.81; at B. subtilis RNAP (Dilution Number 6), 1.80. For the same molecule, the “Ratio of the control reporter (RES)” value on B. subtilis RNAP (Dilution Number 7) is recorded as 1.84; at B. subtilis RNAP (Dilution Number 8) it was 1.64; on B. subtilis RNAP (Dilution Number 9) it was 1.01; at B. subtilis RNAP (Dilution Number 10), 1.01; on B. subtilis RNAP (setting [2]) it was 1.07.

For the molecule `CN[C@H](CC(C)C)C(=O)N[C@H]1C(=O)N[C@@H](CC(N)=O)C(=O)N[C@H]2C(=O)N[C@H]3C(=O)N[C@H](C(=O)N[C@H](C(=O)O)c4cc(O)cc(O)c4-c4cc3ccc4O)[C@H](O)c3ccc(c(Cl)c3)Oc3cc2cc(c3O[C@@H]2O[C@H](CO)[C@@H](O)[C@H](O)[C@H]2O[C@H]2C[C@](C)(N)[C@H](O)[C@H](C)O2)Oc2ccc(cc2Cl)[C@H]1O` [Vancomycin], the “Ratio of the control reporter (RES)” value at B. subtilis RNAP (Dilution Number 7) is 1.03; on B. subtilis RNAP (Dilution Number 8) it was 1.04; at B. subtilis RNAP (Dilution Number 9), 1.07; at B. subtilis RNAP (Dilution Number 10), 1.11; on B. subtilis RNAP (setting [2]) it was 1.12.

Take `CN[C@@H]1[C@H](O)[C@H](NC)[C@H]2O[C@@]3(O)C(=O)C[C@@H](C)O[C@H]3O[C@@H]2[C@H]1O` [Spectinomycin]: the “Reporter expression (both reporter activities)” value at B. subtilis RNAP (strain PL37, FIG. 5 and FIG. 6) was “remained unchanged”. In addition, the “Ratio of the control reporter (RES)” value at B. subtilis RNAP (setting [1]) came to 1.30; at B. subtilis RNAP (Dilution Number 2) it was 1.23; on B. subtilis RNAP (Dilution Number 3), 1.21; on B. subtilis RNAP (Dilution Number 4), 1.14; on B. subtilis RNAP (Dilution Number 5) it was 1.16; at B. subtilis RNAP (Dilution Number 6), 1.14. In addition, the “Ratio of the control reporter (RES)” value on B. subtilis RNAP (Dilution Number 7) amounted to 1.08; at B. subtilis RNAP (Dilution Number 8) it was 1.10; on B. subtilis RNAP (Dilution Number 9), 1.10; on B. subtilis RNAP (Dilution Number 10), 1.10; on B. subtilis RNAP (setting [2]) it was 1.13.
